Measured values as given in the RepoRT retention time repository (doi:10.1016/j.jhazmat.2019.121712).

Assay: Thermo Scientific Acclaim RSLC 120 C18, 100 × 2.1 mm, 2.2 µm, 30 °C; A: 90% water + 10% methanol + 0.01% formic acid + 5 mM ammonium formate; B: methanol + 0.01% formic acid + 5 mM ammonium formate; gradient (min/%B) 0.1/1 3/39 14/99.9 16/99.9
Conditions: stereoisomer not certain

Compound | LC retention time [min]
CCCc1nn(C)c2c(=O)[nH]c(-c3cc(C(=O)CN4CCCCC4)ccc3OCC)nc12 | 7.14
c1ccc(C(c2ccccc2)C2CCCCN2)cc1 (stereo unspecified) | 6.3
COC1CC(OC2C(C)OC(OC3C(C)=CCC4CC(CC5(C=CC(C)C(C(C)C)O5)O4)OC(=O)C4C=C(C)C(O)C5OCC(=CC=CC3C)C45O)CC2OC)OC(C)C1O (stereo unspecified) | 13.4
CCCCn1cc(C(=O)c2cccc3ccccc23)c2ccccc21 | 11.9
O=C(Oc1ccccc1)c1ccccc1C(=O)Oc1ccccc1 | 11.2
CCCc1nc(C)c2c(=O)[nH]c(-c3cc(C(=O)CN4CCN(CC)CC4)ccc3OCC)nn12 | 7.16
COC(=O)C(C)N(C(=O)c1ccco1)c1c(C)cccc1C (stereo unspecified) | 8.99
CN(C)CCOCC(=O)NC12CC3CC(CC(C3)C1)C2 | 6.64
COCC(=O)N(c1c(C)cccc1C)N1CCOC1=O | 6.29
CCCc1nn(C)c2c(=O)[nH]c(-c3cc(C(=O)CN4CCN(C)CC4)ccc3OCC)nc12 | 6.99
COC(=O)C1=C(C)NC(C)=C(C(=O)OC)C1c1ccccc1[N+](=O)[O-] | 8.31
CNC(=O)ON=C(C)C(C)SC (stereo unspecified) | 6.07
CN(C(=O)CN(CCO)CC(=O)N(C)C(C)(C)Cc1ccccc1)C(C)(C)Cc1ccccc1 | 10.9
CN1C2CC(OC(=O)C(CO)c3ccccc3)CC1C1OC12 (stereo unspecified) | 3.83
CC(N)Cc1c[nH]c2ccccc12 (stereo unspecified) | 4.44
COc1cc(OC)nc(NC(=O)NS(=O)(=O)c2cc(NC=O)ccc2C(=O)N(C)C)n1 | 7.54
CCOP(=S)(Oc1ccc([N+](=O)[O-])cc1)c1ccccc1 (stereo unspecified) | 11.7
CN1C(=O)CCC1c1cccnc1 (stereo unspecified) | 3.75
CC(C)(C)NCC(O)COc1ccccc1C1CCCC1 (stereo unspecified) | 9.01
CCCCCn1nc(C(=O)NC(C(N)=O)C(C)C)c2ccccc21 (stereo unspecified) | 10.5
CN(C)P(=O)(OP(=O)(N(C)C)N(C)C)N(C)C | 5.36
COC(=O)c1ccccc1S(=O)(=O)NC(=O)Nc1nc(C)nc(OC)n1 | 6.31
CCCSc1ccc2nc(NC(=O)OC)[nH]c2c1 | 9.19

Compound | LC retention time [min]
CCCC(C)(COC(N)=O)COC(N)=O | 5.94
CC=C1CC(C)C(C)(O)C(=O)OCC2=CC[N+]3([O-])CCC(OC1=O)C23 (stereo unspecified) | 5.07
CCCc1nn(C)c2c(=O)[nH]c(-c3cc(C(C)=O)ccc3OCC)nc12 | 9.81
O=c1[nH]c2ccccc2s1 | 6.53
NCC1CCCCC1(O)c1cccc(O)c1 (stereo unspecified) | 4.36
CCOP(=S)(OCC)SCSC(C)(C)C | 12.2
Cc1ccsc1C(=CCCN1CCCC(C(=O)O)C1)c1sccc1C (stereo unspecified) | 8.43
CCS(=O)CCSP(=O)(OC)OC (stereo unspecified) | 3.98
CCC(C)c1ccccc1OC(=O)NC (stereo unspecified) | 9.05
C[N+]1([O-])CCN2c3ccccc3Cc3ccccc3C2C1 (stereo unspecified) | 7.63
CC(C)(C)Nc1nc(N)[nH]c(=O)n1 | 3.99
CCSC(=O)N(CC)C1CCCCC1 | 11.7
Cc1cc2n[nH]nc2cc1C | 6.76
CCCCCCCCCCOc1cc2c(=O)c(C(=O)OCC)c[nH]c2cc1OCC | 13.4
CCOP(=S)(OCC)SCS(=O)(=O)C(C)(C)C | 9.01
COP(=O)(OC)OC(C)=CC(=O)OC(C)c1ccccc1 (stereo unspecified) | 9.39
CCCCCn1cc(C(=O)C23CC4CC(CC(C4)C2)C3)c2ccccc21 | 13.7
CCOP(=S)(OCC)SCn1nnc2ccccc2c1=O | 10.2
CCCOc1ccc(C(=O)CCN2CCCCC2)cc1 | 6.24
CCCCCn1nc(C(=O)Oc2cccc3cccnc23)c2ccccc21 | 11.4
CCCCCn1cc(C(=O)Cc2cccc(OC)c2)c2ccccc21 | 11.6
CNC(C)Cc1ccccc1 (stereo unspecified) | 4.21
CN1CCN2c3ncccc3Cc3ccccc3C2C1 (stereo unspecified) | 5.29

Compound | LC retention time [min]
CCOc1ccc2c3c1OC1C(O)C=CC4C(C2)N(C)CCC341 (stereo unspecified) | 4.08
CN=CNc1ccc(C)cc1C | 4.44
CC(C)CNC(=O)N1CCNC1=O | 5.74
CN(CC=CC#CC(C)(C)C)Cc1cccc2ccccc12 | 11
CC(C)CCOc1ccc(NC(=S)Nc2ccc(OCCC(C)C)cc2)cc1 | 13
OCCN1CCN(CCCN2c3ccccc3C=Cc3ccccc32)CC1 | 7.83
COc1cc(CNC(=O)CCCCC=CC(C)C)ccc1O | 9.83
CCCCCn1cc(C(=O)NC23CC4CC(CC(C4)C2)C3)c2ccccc21 | 13.2
CN(C)CCOc1ccccc1Cc1ccccc1 | 7.29
CCCCN1CC(=O)N2C(Cc3c([nH]c4ccccc34)C2c2ccc3c(c2)OCO3)C1=O (stereo unspecified) | 10.2
COc1ccc(-c2ccccc2)cc1NNC(=O)OC(C)C | 9.87
O=C(O)c1cc(N=Nc2ccc(O)c(C(=O)O)c2)ccc1O | 5.66
CC(CCc1ccc(O)cc1)NCCc1ccc(O)c(O)c1 (stereo unspecified) | 4.21
CNC(=C[N+](=O)[O-])NCCSCc1ccc(C[N+](C)(C)[O-])o1 | 3.43
CCCc1nn(C)c2c(=O)[nH]c(-c3cc(C(=O)CN4CC(C)NC(C)C4)ccc3OCC)nc12 (stereo unspecified) | 7.5
CNC(=C[N+](=O)[O-])NCCSCc1ccc(CN(C)C)o1 | 3.14
O=c1[nH]cnc2[nH]ncc12 | 2.19
COc1ccc(CC(C)N)cc1 (stereo unspecified) | 4.34
COc1cc(NS(=O)(=O)c2ccc(N)cc2)ncn1 | 4.75
COc1cc2c(cc1OC)CC(=O)N(CCCN(C)CC1Cc3cc(OC)c(OC)cc31)CC2 (stereo unspecified) | 5.02
CNC(C)Cc1ccc2c(c1)OCO2 (stereo unspecified) | 4.18
CC1NCCOC1c1ccccc1 (stereo unspecified) | 4.14
CC(Cc1ccc(C(C)(C)C)cc1)CN1CCCCC1 (stereo unspecified) | 8.62

Compound | LC retention time [min]
CN(C)S(=O)(=O)c1ccc2c(c1)N(CCCN1CCC(CCO)CC1)c1ccccc1S2 | 7.39
CCC1OC(=O)C(C)C(OC2CC(C)(OC)C(O)C(C)O2)C(C)C(OC2OC(C)CC(N(C)C)C2O)C(C)(OC)CC(C)C(=O)C(C)C(O)C1(C)O (stereo unspecified) | 9.18
CCCCn1cc(C(=O)c2cccc3ccccc23)c2ccc(O)cc21 | 10.6
CCOC(=O)N(C)C(=O)CSP(=S)(OCC)OCC | 10.2
CCCCCCCCc1ccc(OCCOCCO)cc1 | 14.1
CCOP(=S)(OCC)Oc1ccc([N+](=O)[O-])cc1 | 10.7
CN1CCCCC1Cn1cc(C(=O)C2C(C)(C)C2(C)C)c2ccccc21 (stereo unspecified) | 8.81
CCC(=O)C(CCN(C)C)(c1ccccc1)c1ccccc1 | 7.68
Cc1nccc2c1[nH]c1ccccc12 | 4.91
CC(COc1ccccc1Cc1ccccc1)N1CCCCC1 (stereo unspecified) | 8.32
COC(=O)C(NC(=O)c1nn(CC2CCCCC2)c2ccccc12)C(C)C (stereo unspecified) | 12.4
O=c1cn[nH][nH]1 | 5.99
CCCCCCCCCCCC(CC1OC(=O)C1CCCCCC)OC(=O)C(CC(C)C)NC=O (stereo unspecified) | 14.6
CCOC(=O)C=C1SC(N2CCCCC2)C(=O)N1CC (stereo unspecified) | 9.85
O=C(O)c1cc(N=Nc2ccc(S(=O)(=O)Nc3ccccn3)cc2)ccc1O | 6.61
CC=C1CC(C)C(O)(CO)C(=O)OCC2=CCN3CCC(OC1=O)C23 (stereo unspecified) | 4.01
CCn1nc(C(=O)O)c(=O)c2cc3c(cc21)OCO3 | 5.32
CCC1C(=O)OCC1Cc1cncn1C (stereo unspecified) | 2.74
CCC1=C(C)CN(C(=O)NCCc2ccc(S(=O)(=O)NC(=O)NC3CCC(C)CC3)cc2)C1=O (stereo unspecified) | 10.7
CCN(CC)CC(=O)Nc1c(C)cccc1C | 4.54
COc1nn(CSP(=S)(OC)OC)c(=O)s1 | 8.7
CNC(=O)Oc1cc(C)c(S(C)=O)c(C)c1 (stereo unspecified) | 4.86
Cn1cnc2c1c(=O)[nH]c(=O)n2C | 3.28

Compound | LC retention time [min]
CC(N)Cc1ccc(O)cc1 (stereo unspecified) | 2.98
CC1COCc2cc3c(cc21)C(C)(C)C(C)C3(C)C (stereo unspecified) | 13.9
CCOC(=O)C(CCc1ccccc1)NC(C)C(=O)N1C(C(=O)O)CC2CCCC21 (stereo unspecified) | 8.56
CN1C(C(=O)Nc2ccccn2)=C(O)c2ccccc2S1(=O)=O | 6.84
CN1CCC23c4c5ccc(O)c4OC2C(O)C=CC3C1C5 (stereo unspecified) | 2.54
COC(=O)c1sccc1S(=O)(=O)NC(=O)Nc1nc(C)nc(OC)n1 | 6.24
CC12CCC3C4CCC(=O)C=C4CCC3C1CCC2OC(=O)CCc1ccccc1 (stereo unspecified) | 13.6
c1ccc2n[nH]nc2c1 | 4.76
COP(=S)(OC)Oc1ccc(C#N)cc1 | 8.27
CCCc1nn(C)c2c(=S)nc(-c3cc(S(=O)(=O)N4CCN(C)CC4)ccc3OCC)[nH]c12 | 10.6
O=c1[nH]c2ccccc2n1CCCN1CCN(C(c2ccccc2)c2ccccc2)CC1 | 8.42
CC(=O)Nc1ccc(OCC(O)CNC(C)C)cc1 (stereo unspecified) | 3.34
CC#CCn1c(N2CCCC(N)C2)nc2c1c(=O)n(Cc1nc(C)c3ccccc3n1)c(=O)n2C (stereo unspecified) | 6.01
CCC(CC)OC1C=C(C(=O)O)CC(N)C1NC(C)=O (stereo unspecified) | 4.73
CCOP(=O)(SC(C)CC)N1CCSC1=O (stereo unspecified) | 7.73
C=C(C)C1CCC(C)=CC1c1c(O)cc(CCCCC)cc1O (stereo unspecified) | 12.7
CC(C)(C)NCC(O)COc1nsnc1N1CCOCC1 (stereo unspecified) | 4.88
CN(C)C(=O)SCCCCOc1ccccc1 | 10.7
CCCCCn1nc(C(=O)NC23CC4CC(CC(C4)C2)C3)c2ccccc21 | 14
